Data reported in PMC7802074, “Azanitrile Inhibitors of the SmCB1 Protease Target Are Lethal to Schistosoma mansoni: Structural and Mechanistic Insights into Chemotype Reactivity” (ACS Infectious Diseases, 2020).
“And” between values parts separate entries of the source, which are not always exact repeats. Equal values may be shown once. Read-outs that look alike come from different tables or passages of the source.

Legend:
recombinant SmCB1 = recombinant SmCB1 (Schistosoma mansoni, UniProt Q8MNY2, T185A/T300A); test: SmCB1 kinetic inhibition assay with fluorogenic substrate Cbz-Phe-Arg-AMC; assay type: biochemical; details: for Ki / SmCB1 inhibition k2nd (second-order rate constant): substrate Cbz-Phe-Arg-AMC; for SmCB1 inhibition k2nd (second-order rate constant): slow-binding azadipeptide nitriles
recombinant SmCB1, sequence (Q8MNY2 87-340 T185A/T300A): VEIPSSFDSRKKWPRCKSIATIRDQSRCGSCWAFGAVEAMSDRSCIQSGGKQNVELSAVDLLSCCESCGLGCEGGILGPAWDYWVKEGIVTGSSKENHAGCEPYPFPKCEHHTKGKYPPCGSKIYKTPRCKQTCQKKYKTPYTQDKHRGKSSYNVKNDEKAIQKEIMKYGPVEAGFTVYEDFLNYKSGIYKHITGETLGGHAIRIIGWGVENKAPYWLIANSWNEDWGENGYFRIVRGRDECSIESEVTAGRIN
Experimental: Inhibition measurements were performed in triplicates in 96-well microplates (100 μL assay volume) at 37 °C. SmCB1 (20–40 pM) was added to a mixture of the fluorogenic substrate Cbz-Phe-Arg-AMC (20 μM) and an inhibitor (0–100 μM) in 0.1 M sodium acetate, pH 5.5, containing 2.5 mM dithiothreitol and 0.1% PEG 6000. The substrate hydrolysis was monitored in an Infinite M1000 microplate reader (Tecan, Männedorf, Switzerland) at excitation and emission wavelengths of 360 and 465 nm, respectively, for up to 15 and 60 min for fast- and slow-binding inhibitors, respectively. […] For slow-binding inhibitors, an observed first-order rate constant kobs was calculated at each inhibitor concentration by fitting the progress curve to the equation P = vst + (vi – vs)(1 – […])/kobs + d, where P is the product formation, vs is the steady-state velocity, t is the reaction time, vi is the initial velocity, and d is the offset. The inhibition constant Ki′ was determined by nonlinear regression using the equation vs/v0 = 1/(1 + [I]/Ki′). The true inhibition constants Ki were then calculated using the equation Ki = Ki′/(1 + [S]/Km), where [S] is the substrate concentration and Km is the Michaelis constant. The apparent second-order rate constant k2nd′ was determined by fitting to the linear equation kobs = k2nd′[I] + koff, where koff is the first-order rate constants for the dissociation of the enzyme–inhibitor complex and the true constant k2nd was calculated by the correction k2nd = k2nd′(1 + [S]/Km). […] In none of the assay systems did the final concentration of DMSO exceed 1.5%.

[1] = test system: S. mansoni newly transformed schistosomula (NTS); test: Schistosome phenotypic assay; assay type: cell-based, Schistosoma mansoni; details: for Descriptors Day 2 (phenotypic changes) / Descriptors Day 3 (phenotypic changes) / Descriptors Day 4 (phenotypic changes) / Descriptors Day 1 (phenotypic changes): 10 µM inhibitor; for Severity score Day 1 / Severity score Day 2 / Severity score Day 3 / Severity score Day 4: 10 μM inhibitor, scale 0 (no effect) to 4 (severe); for Severity score Day 1: 24 h; for Severity score Day 2: 48 h
Experimental: Newly transformed schistosomula (NTS) of S. mansoni were prepared by mechanically transforming infective larvae (cercariae) as described previously.[70],[71] NTS (200–300 parasites) were incubated in 200 μL of Basch Medium 169 containing 5% FBS, 100 U mL^–1 penicillin, and 100 μg mL^–1 streptomycin at 5% CO2 and 37 °C.[70],[72],[73] Inhibitors were added at the final concentration of 10 μM,[20],[69] and changes in phenotypes were observed every 24 h for up to 4 days. A constrained nomenclature of “descriptors” is used to record the multiple and dynamic changes in movement, shape, and translucence of which the schistosome parasite is capable (Table S3).[70] These descriptors are then converted into an ordinal “severity score” system from 0 (no effect) to 4 (maximum effect), which allows for the relative comparison of compound effects, as described.[74],[75] Images of NTS were captured using a Zeiss Axiovert 40 C inverted microscope (10× objective) and a Zeiss AxioCam MRc digital camera controlled by AxioVision 40 (v. 4.8.1.0) software.

[2] = Table S2, carbadipeptide nitriles, read-out: SmCB1 inhibition Ki
[3] = SmCB1 inhibition Ki, kinetic activity assay, pH 5.5, 37 °C

SMILES: CC(C)C[C@H](NC(=O)c1ccc(-c2ccccc2)cc1)C(=O)NCC#N [Gü2420]
- Ki (recombinant SmCB1; [2]): 0.056 ± 0.013 µM
- Descriptors Day 2 (phenotypic changes) [1]: R, Dark
- Descriptors Day 3 (phenotypic changes) [1]: R, Dark
- Descriptors Day 4 (phenotypic changes) [1]: R, Dark
- Severity score Day 1 [1]: 0
- Severity score Day 2 [1]: 2
- Severity score Day 3 [1]: 2
- Severity score Day 4 [1]: 2

SMILES: N#CCNC(=O)[C@H](CC1CCCCC1)NC(=O)c1ccc(-c2noc(-c3cccs3)n2)cc1 [Gü2421]
- Ki (recombinant SmCB1; [2]): 0.012 ± 0.004 µM
- Descriptors Day 1 (phenotypic changes) [1]: R, S
- Descriptors Day 2 (phenotypic changes) [1]: R, S
- Descriptors Day 3 (phenotypic changes) [1]: R, S, Dark
- Descriptors Day 4 (phenotypic changes) [1]: R, S, Dark
- Severity score Day 1 [1]: 2
- Severity score Day 2 [1]: 2
- Severity score Day 3 [1]: 3
- Severity score Day 4 [1]: 3

SMILES: CCC(C)C(NC(=O)OC(C)(C)C)C(=O)NCC#N (stereo not shown) [Gü932]
- Ki (recombinant SmCB1; [2]): > 10 µM

SMILES: Cc1nc(-c2ccc(CNC(=O)N[C@@H](CC(C)C)C(=O)N(C)N(C)C#N)cc2)no1 [Compound 16a]
- Ki (recombinant SmCB1; [3]): 0.03 ± 0.0041 µM
- SmCB1 inhibition k2nd (second-order rate constant) (recombinant SmCB1): 9.2 ± 0.8 10^3 M^-1 s^-1
- Descriptors Day 2 (phenotypic changes) [1]: R, Unc
- Descriptors Day 3 (phenotypic changes) [1]: R, Unc, Dark
- Descriptors Day 4 (phenotypic changes) [1]: Deg
- Severity score Day 1 [1]: 0
- Severity score Day 2 [1]: 2
- Severity score Day 3 [1]: 3
- Severity score Day 4 [1]: 4

SMILES: CC(C)(C)OC(=O)N[C@@H](Cc1ccccc1)C(=O)NCC#N [Gü809]
- Ki (recombinant SmCB1; [2]): > 10 µM

SMILES: CC(C)C[C@H](NC(=O)Nc1ccccc1)C(=O)N(C)N(C)C#N [Compound 18a]
- Ki (recombinant SmCB1; [3]): 0.112 ± 0.011 µM
- Descriptors Day 1 (phenotypic changes) [1]: R, Unc
- Descriptors Day 2 (phenotypic changes) [1]: Deg
- Severity score Day 1 [1]: 2
- Severity score Day 2 [1]: 4
- Severity score Day 3 [1]: 4
- Severity score Day 4 [1]: 4

SMILES: CC(C)(C)OC(=O)N[C@@H](Cc1ccc(Br)cc1)C(=O)NCC#N [Gü1121]
- Ki (recombinant SmCB1; [2]): > 10 µM

SMILES: CC(C)C[C@H](NC(=O)NCc1ccc(-c2noc(-c3cccs3)n2)cc1)C(=O)N(C)N(C)C#N [Compound 17a]
- Ki (recombinant SmCB1; [3]): 0.0583 ± 0.0028 µM
- SmCB1 inhibition k2nd (second-order rate constant) (recombinant SmCB1): 3.1 ± 0.6 10^3 M^-1 s^-1
- Severity score Day 1 [1]: 0 and 0/0
- Severity score Day 2 [1]: 0 and 0/0
- Severity score Day 3 [1]: 0
- Severity score Day 4 [1]: 0

SMILES: CC(C)C[C@H](NC(=O)Nc1ccc(-c2noc(-c3cccs3)n2)cc1)C(=O)NCC#N [Compound 4c]
- Ki (recombinant SmCB1; SmCB1 inhibition Ki, Table S2, carbadipeptide nitriles): 6.62 ± 0.91 µM
- Ki (recombinant SmCB1; [3]): 6.62 ± 0.91 µM
- Descriptors Day 1 (phenotypic changes) [1]: R, S
- Descriptors Day 2 (phenotypic changes) [1]: R
- Descriptors Day 4 (phenotypic changes) [1]: R, S
- Severity score Day 1 [1]: 2
- Severity score Day 2 [1]: 1
- Severity score Day 3 [1]: 0
- Severity score Day 4 [1]: 2

SMILES: CC(C)(C)OC(=O)N[C@@H](Cc1cccs1)C(=O)NCC#N [Gü969]
- Ki (recombinant SmCB1; [2]): 0.62 ± 0.05 µM
- Severity score Day 1 [1]: 0
- Severity score Day 2 [1]: 0
- Severity score Day 3 [1]: 0
- Severity score Day 4 [1]: 0

SMILES: CN(C#N)N(C)C(=O)[C@H](Cc1ccccc1)NC(=O)OCc1ccccc1 [Compound 2a]
- koff (recombinant SmCB1): 0.0003 ± 2e-05 s⁻¹
- binding kinetics (shape of progress curves) (recombinant SmCB1; Figure 2): slow-binding
- Ki (recombinant SmCB1; [3]): 0.0194 ± 0.0014 µM
- SmCB1 inhibition k2nd (second-order rate constant) (recombinant SmCB1): 15.7 ± 1.1 10^3 M^-1 s^-1
- Descriptors Day 1 (phenotypic changes) [1]: Deg
- Descriptors Day 2 (phenotypic changes) [1]: Deg
- Severity score Day 1 [1]: 4 and 4/4
- Severity score Day 2 [1]: 4 and 4/4
- Severity score Day 3 [1]: 4
- Severity score Day 4 [1]: 4

SMILES: CC(C)(C)OC(=O)NCC(=O)NCC#N [Gü807]
- Ki (recombinant SmCB1; [2]): > 10 µM

SMILES: CC(C)(C)OC(=O)N[C@@H](Cc1cccc2ccccc12)C(=O)NCC#N [Gü1127]
- Ki (recombinant SmCB1; [2]): > 10 µM

SMILES: CC(=O)N[C@@H](Cc1ccccc1)C(=O)NCC#N [Gü1134]
- Ki (recombinant SmCB1; [2]): > 10 µM

SMILES: CSCC[C@H](NC(=O)OC(C)(C)C)C(=O)NCC#N [Gü935]
- Ki (recombinant SmCB1; [2]): > 10 µM

SMILES: CC(C)(C)OC(=O)N[C@@H](Cc1ccccc1)C(=O)N[C@H](C#N)CC#N [Gü970]
- Ki (recombinant SmCB1; [2]): > 10 µM

SMILES: CC(C)(C)OC(=O)N[C@@H](Cc1ccc(O)cc1)C(=O)NCC#N [Gü915]
- Ki (recombinant SmCB1; [2]): > 10 µM

SMILES: CC(C)(C)OC(=O)N[C@@H](Cc1c[nH]c2ccccc12)C(=O)NCC#N [Gü916]
- Ki (recombinant SmCB1; [2]): > 10 µM

SMILES: N#CCNC(=O)C1(NC(=O)OCc2ccccc2)CCCCC1 [Gü2195]
- Ki (recombinant SmCB1; [2]): > 10 µM

SMILES: CCC[C@H](NC(=O)OC(C)(C)C)C(=O)NCC#N [Gü1131]
- Ki (recombinant SmCB1; [2]): > 10 µM

SMILES: CC(C)(C)OC(=O)N[C@H](C(=O)NCC#N)c1ccccc1 [Gü1130]
- Ki (recombinant SmCB1; [2]): > 10 µM

SMILES: CC(C)(C)OC(=O)N[C@@H](Cc1cccc(F)c1)C(=O)NCC#N [Gü1239]
- Ki (recombinant SmCB1; [2]): > 10 µM

SMILES: CN(C#N)N(C)C(=O)CNC(=O)OCc1ccccc1 [Compound 1a]
- Severity score Day 1 [1]: 0 and 0/0
- Severity score Day 2 [1]: 0 and 0/0
- Severity score Day 3 [1]: 0
- Severity score Day 4 [1]: 0
- phenotype severity against NTS ([1]; 10 μM, up to 4 days): ineffective

SMILES: CC(C)(C)OC(=O)N[C@@H](Cc1ccc(F)cc1)C(=O)NCC#N [Gü1237]
- Ki (recombinant SmCB1; [2]): > 10 µM

SMILES: CC(C)[C@H](NC(=O)OC(C)(C)C)C(=O)NCC#N [Gü931]
- Ki (recombinant SmCB1; [2]): > 10 µM

SMILES: C[C@H](NC(=O)OC(C)(C)C)C(=O)NCC#N [Gü933]
- Ki (recombinant SmCB1; [2]): > 10 µM

SMILES: CSCC[C@@H](C#N)NC(=O)[C@H](Cc1ccccc1)NC(=O)OC(C)(C)C [Gü968]
- Ki (recombinant SmCB1; [2]): > 10 µM

SMILES: CC(C)(C)OC(=O)N[C@@H](Cc1csc2ccccc12)C(=O)NCC#N [Gü1246]
- Ki (recombinant SmCB1; [2]): > 10 µM

SMILES: N#CCNC(=O)[C@H](Cc1ccccc1)NC(=O)c1ccccc1 [Gü1135]
- Ki (recombinant SmCB1; [2]): > 10 µM

SMILES: CC(C)(C)OC(=O)N[C@@H](COCc1ccccc1)C(=O)NCC#N [Gü930]
- Ki (recombinant SmCB1; [2]): > 10 µM

SMILES: CC(C)(C)OC(=O)N[C@@H](CC1CCCCC1)C(=O)NCC#N [Gü929]
- Ki (recombinant SmCB1; [2]): > 10 µM

SMILES: CC(C)(C)OC(=O)N[C@@H](Cc1ccccc1F)C(=O)NCC#N [Gü1242]
- Ki (recombinant SmCB1; [2]): > 10 µM

SMILES: CC(C)(C)OC(=O)N[C@@H](CC1CC1)C(=O)NCC#N [Gü1228]
- Ki (recombinant SmCB1; [2]): > 10 µM

SMILES: CC(C)C[C@H](NC(=O)OCc1ccccc1)C(=O)NCC#N [Gü928]
- Ki (recombinant SmCB1; [2]): > 10 µM

SMILES: CC(C)(C)OC(=O)N1CCC[C@H]1C(=O)NCC#N [Gü936]
- Ki (recombinant SmCB1; [2]): > 10 µM

SMILES: CC(C)(C)OC(=O)N[C@H](Cc1ccccc1)C(=O)NCC#N [Gü1133]
- Ki (recombinant SmCB1; [2]): > 10 µM

SMILES: CC(C)(C)OC(=O)N[C@@H](Cc1cccc(Br)c1)C(=O)NCC#N [Gü1122]
- Ki (recombinant SmCB1; [2]): > 10 µM

SMILES: CC[C@H](NC(=O)OC(C)(C)C)C(=O)NCC#N [Gü1132]
- Ki (recombinant SmCB1; [2]): > 10 µM

SMILES: CC(C)(C)OC(=O)N[C@@H](Cc1ccsc1)C(=O)NCC#N [Gü1232]
- Ki (recombinant SmCB1; [2]): > 10 µM

SMILES: CC(C)(C)OC(=O)N[C@@H](CCc1ccccc1)C(=O)NCC#N [Gü1129]
- Ki (recombinant SmCB1; [2]): > 10 µM

SMILES: CC(C)C[C@H](NC(=O)OC(C)(C)C)C(=O)NCC#N [Gü914]
- Ki (recombinant SmCB1; [2]): > 10 µM
